Results reported in patent publication US10947252B2, “Inhibitors of KEAP1-Nrf2 protein-protein interaction” (Janssen Pharmaceutica NV, priority 2018, dated 2021).

The compounds below were run on Glo-Response ARE-luc2P HEK293 cell line (assay: ARE luciferase reporter cell-based assay). Settings: Homo sapiens, HEK293, 24 h, average of results obtained.
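Also: luciferase signal tracks Nrf2 activation of the ARE once compounds disrupt KEAP1-Nrf2 binding, read with One-Glo reagent, DMSO serving as low control.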

SMILES | EC50 [nM]
CC[C@@H]1CN(Cc2cc([C@H](CC(=O)O)c3ccn4c(C(F)F)nnc4c3C)ccc2C)S(=O)(=O)c2cccnc2O1 (relative stereo) [Example 464, (*S)-3-(3-(Difluoromethyl)-8-methyl-[1,2,4]triazolo[4,3-a]pyridin-7-yl)-3-(3-(((R)-4-ethyl-1,1-dioxido-3,4-dihydro-2H-pyrido[2,3-b][1,4,5]oxathiazepin-2-yl)methyl)-4-methylphenyl)propanoic Acid] | 24.7
Cc1cnc2c(c1)S(=O)(=O)N(Cc1nc([C@@H](CC(=O)O)c3ccn4c(C(F)(F)F)nnc4c3C)ccc1C)C[C@@H]1CCCCN21 (relative stereo) [Example 488, (*S)-3-(8-Methyl-3-(trifluoromethyl)-[1,2,4]triazolo[4,3-a]pyridin-7-yl)-3-(5-methyl-6-(((*S)-3-methyl-5,5-dioxido-7,7a,8,9,10,11-hexahydro-6H-dipyrido[2,1-d:2′,3′-f][1,2,5]thiadiazepin-6-yl)methyl)pyridin-2-yl)propanoic Acid] | 11.9
Cc1ccc([C@H](c2ccn3c(C(F)(F)F)nnc3c2C)C(C)C(=O)O)nc1CN1C[C@@H]2CCCCN2c2ncc(F)cc2S1(=O)=O (relative stereo) [Example 506, (3*S)-3-(6-(((S)-3-fluoro-5,5-dioxido-7,7a,8,9,10,11-hexahydro-6H-dipyrido[2,1-d:2′,3′-f][1,2,5]thiadiazepin-6-yl)methyl)-5-methylpyridin-2-yl)-2-methyl-3-(8-methyl-3-(trifluoromethyl)-[1,2,4]triazolo[4,3-a]pyridin-7-yl)propanoic Acid] | 7.83
Cc1ccc([C@@H](c2ccn3c(C(F)(F)F)nnc3c2C)C(C)C(=O)O)nc1CN1C[C@@H]2CCCCN2c2ncc(F)cc2S1(=O)=O (relative stereo) [Example 507, (3*R)-3-(6-(((*S)-3-Fluoro-5,5-dioxido-7,7a,8,9,10,11-hexahydro-6H-dipyrido[2,1-d:2′,3′-f][1,2,5]thiadiazepin-6-yl)methyl)-5-methylpyridin-2-yl)-2-methyl-3-(8-methyl-3-(trifluoromethyl)-[1,2,4]triazolo[4,3-a]pyridin-7-yl)propanoic Acid] | 0.73
Cc1ccc([C@H](CC(=O)O)c2ccn3c(C(F)F)nnc3c2C)cc1CN1C[C@@H]2CCCCN2c2ncc(F)cc2S1(=O)=O (relative stereo) [Example 511, (*S)-3-(3-(Difluoromethyl)-8-methyl-[1,2,4]triazolo[4,3-a]pyridin-7-yl)-3-(3-(((*S)-3-fluoro-5,5-dioxido-7,7a,8,9,10,11-hexahydro-6H-dipyrido[2,1-d:2′,3′-f][1,2,5]thiadiazepin-6-yl)methyl)-4-methylphenyl)propanoic Acid] | 1.52
Cc1ccc([C@H](CC(=O)O)c2ccn3c(C(F)F)nnc3c2C)cc1CN1C[C@H]2CCCCN2c2ncc(F)cc2S1(=O)=O (relative stereo) [Example 512, (*S)-3-(3-(Difluoromethyl)-8-methyl-[1,2,4]triazolo[4,3-a]pyridin-7-yl)-3-(3-(((*R)-3-fluoro-5,5-dioxido-7,7a,8,9,10,11-hexahydro-6H-dipyrido[2,1-d:2′,3′-f][1,2,5]thiadiazepin-6-yl)methyl)-4-methylphenyl)propanoic Acid] | 3.21
CCc1c([C@H](c2ccc(C)c(CN3C[C@@H]4CCCCN4c4ncc(C)cc4S3(=O)=O)c2)C(C)C(=O)O)ccn2c(C(F)(F)F)nnc12 (relative stereo) [Example 513, (3*S)-3-(8-Ethyl-3-(trifluoromethyl)-[1,2,4]triazolo[4,3-a]pyridin-7-yl)-2-methyl-3-(4-methyl-3-(((*S)-3-methyl-5,5-dioxido-7,7a,8,9,10,11-hexahydro-6H-dipyrido[2,1-d:2′,3′-f][1,2,5]thiadiazepin-6-yl)methyl)phenyl)propanoic Acid] | 1.63
Cc1cnc2c(c1)S(=O)(=O)N(Cc1cc([C@@H](c3ccn4c(C(F)(F)F)nnc4c3C)C(C)C(=O)O)ccc1C)C[C@@H]1CCCCN21 (relative stereo) [Example 514, (3*S)-2-Methyl-3-(4-methyl-3-(((*S)-3-methyl-5,5-dioxido-7,7a,8,9,10,11-hexahydro-6H-dipyrido[2,1-d:2′,3′-f][1,2,5]thiadiazepin-6-yl)methyl)phenyl)-3-(8-methyl-3-(trifluoromethyl)-[1,2,4]triazolo[4,3-a]pyridin-7-yl)propanoic Acid] | 1.7
CCc1c([C@H](c2ccc(C)c(CN3C[C@H]4CCCCN4c4ncc(C)cc4S3(=O)=O)c2)C(C)C(=O)O)ccn2c(C(F)(F)F)nnc12 (relative stereo) [Example 515, (3*S)-3-(8-Ethyl-3-(trifluoromethyl)-[1,2,4]triazolo[4,3-a]pyridin-7-yl)-2-methyl-3-(4-methyl-3-(((*R)-3-methyl-5,5-dioxido-7,7a,8,9,10,11-hexahydro-6H-dipyrido[2,1-d:2′,3′-f][1,2,5]thiadiazepin-6-yl)methyl)phenyl)propanoic Acid] | 1.33
CCc1c([C@@H](CC(=O)O)c2ccc(C)c(CN3C[C@@H]4CCCCN4c4ncc(C)cc4S3(=O)=O)c2)ccn2c(C(F)(F)F)nnc12 (relative stereo) [Example 517, (*S)-3-(8-Ethyl-3-(trifluoromethyl)-[1,2,4]triazolo[4,3-a]pyridin-7-yl)-3-(4-methyl-3-(((*S)-3-methyl-5,5-dioxido-7,7a,8,9,10,11-hexahydro-6H-dipyrido[2,1-d:2′,3′-f][1,2,5]thiadiazepin-6-yl)methyl)phenyl)propanoic Acid] | 10.3
Cc1ccc([C@H](CC(=O)O)c2ccn3c(C(F)(F)F)nnc3c2C)nc1CN1C[C@H]2CCCCN2c2ncc(Cl)cc2S1(=O)=O (relative stereo) [Example 522, (*R)-3-(6-(((*R)-3-Chloro-5,5-dioxido-7,7a,8,9,10,11-hexahydro-6H-dipyrido[2,1-d:2′,3′-f][1,2,5]thiadiazepin-6-yl)methyl)-5-methylpyridin-2-yl)-3-(8-methyl-3-(trifluoromethyl)-[1,2,4]triazolo[4,3-a]pyridin-7-yl)propanoic Acid] | 5.06
Cc1cnc2c(c1)S(=O)(=O)N(Cc1cc([C@H](c3ccn4c(C(F)(F)F)nnc4c3C)[C@H](C)C(=O)O)ccc1C)CC1(CC1)O2 (relative stereo) [Example 545, (2*S,3*R)-2-Methyl-3-(4-methyl-3-((8′-methyl-1′,1′-dioxidospiro[cyclopropane-1,4′-pyrido[2,3-b][1,4,5]oxathiazepin]-2′(3′H)-yl)methyl)phenyl)-3-(8-methyl-3-(trifluoromethyl)-[1,2,4]triazolo[4,3-a]pyridin-7-yl)propanoic Acid] | 49.8
Cc1cnc2c(c1)S(=O)(=O)N(Cc1cc([C@H](c3ccn4c(C(F)(F)F)nnc4c3C)[C@@H](C)C(=O)O)ccc1C)CC1(CC1)O2 (relative stereo) [Example 546, (2*R,3*R)-2-Methyl-3-(4-methyl-3-((8′-methyl-1′,1′-dioxidospiro[cyclopropane-1,4′-pyrido[2,3-b][1,4,5]oxathiazepin]-2′(3′H)-yl)methyl)phenyl)-3-(8-methyl-3-(trifluoromethyl)-[1,2,4]triazolo[4,3-a]pyridin-7-yl)propanoic Acid] | > 20000
Cc1ncc([C@@H](c2ccn3c(C(F)(F)F)nnc3c2C)C(C)(C)C(=O)O)cc1CN1C[C@H]2CCCCN2c2ncc(C#N)cc2S1(=O)=O (relative stereo) [Example 654, (*R)-3-(5-(((*R)-3-Cyano-5,5-dioxido-7,7a,8,9,10,11-hexahydro-6H-dipyrido[2,1-d:2′,3′-f][1,2,5]thiadiazepin-6-yl)methyl)-6-methylpyridin-3-yl)-2,2-dimethyl-3-(8-methyl-3-(trifluoromethyl)-[1,2,4]triazolo[4,3-a]pyridin-7-yl)propanoic Acid] | 6880
Cc1ncc([C@H](c2ccn3c(C(F)(F)F)nnc3c2C)C(C)(C)C(=O)O)cc1CN1C[C@H]2CCCCN2c2ncc(C#N)cc2S1(=O)=O (relative stereo) [Example 656, (*S)-3-(5-(((*R)-3-Cyano-5,5-dioxido-7,7a,8,9,10,11-hexahydro-6H-dipyrido[2,1-d:2′,3′-f][1,2,5]thiadiazepin-6-yl)methyl)-6-methylpyridin-3-yl)-2,2-dimethyl-3-(8-methyl-3-(trifluoromethyl)-[1,2,4]triazolo[4,3-a]pyridin-7-yl)propanoic Acid] | 3590
CCn1nnc2c(C)c([C@H](c3ccc(C)c(CN4CC5(CCOCC5)Oc5ncccc5S4(=O)=O)c3)C(C)(C)C(=O)O)ccc21 (single isomer, unassigned) [Example 15, (*S)-3-(3-((1′,1′-Dioxido-2,3,5,6-tetrahydrospiro[pyran-4,4′-pyrido[2,3-b][1,4,5]oxathiazepin]-2′(3′H)-yl)methyl)-4-methylphenyl)-3-(1-ethyl-4-methyl-1H-benzo[d][1,2,3]triazol-5-yl)-2,2-dimethylpropanoic Acid] | 0.3
Cc1cnc2c(c1)S(=O)(=O)N(Cc1cc([C@@H](c3ccn4c(C(F)(F)F)nnc4c3C)C(C)(C)C(=O)O)ccc1C)CC1(CCOCC1)O2 (single isomer, unassigned) [Example 18, (*S)-2,2-Dimethyl-3-(4-methyl-3-((8′-methyl-1′,1′-dioxido-2,3,5,6-tetrahydrospiro[pyran-4,4′-pyrido[2,3-b][1,4,5]oxathiazepin]-2′(3′H)-yl)methyl)phenyl)-3-(8-methyl-3-(trifluoromethyl)-[1,2,4]triazolo[4,3-a]pyridin-7-yl)propanoic Acid] | 1.5
Cc1cnc2c(c1)S(=O)(=O)N(Cc1cc([C@H](CC(=O)O)c3ccn4c(C(F)(F)F)nnc4c3C)ccc1C)CC1(CC1)O2 (single isomer, unassigned) [Example 27, (*S)-3-(4-Methyl-3-((8′-methyl-1′,1′-dioxidospiro[cyclopropane-1,4′-pyrido[2,3-b][1,4,5]oxathiazepin]-2′(3′H)-yl)methyl)phenyl)-3-(8-methyl-3-(trifluoromethyl)-[1,2,4]triazolo[4,3-a]pyridin-7-yl)propanoic Acid] | 28.8
